In publication PMC10872270 (Cell reports, 2023):

How the values were obtained:
[1] = tested on: MDA-MB-453 tumors; assay: RNA-seq of MDA-MB-453 xenograft tumors; type: in vivo, mice; settings: MDA-MB-453 xenograft tumors vs vehicle
[2] = tested on: AR-target genes FKBP5, STEAP4, and TMPRSS2; assay: AR-target gene expression by real-time PCR in MDA-MB-453 cells; type: cell-based; settings: 16–20 hours
[3] = tested on: UT-1355 PDX; assay: UT-1355 TNBC PDX orthotopic xenograft; type: in vivo; settings: female NSG mice; expresses AR-FL and AR-V7
[4] = tested on: patients expressing AR-V7; settings: clinical trial; alone or in combination with PI3K inhibitor taselisib; cited from earlier work
[5] = tested on: MDA-MB-453 xenograft; settings: female mice supplemented with DHT; cited from earlier work
[6] = tested on: MDA-MB-453-AR-V7 cells; assay: SRB proliferation assay in growth medium; type: cell-based; settings: seven days
[7] = tested on: MDA-MB-453 cells; assay: SRB proliferation assay in growth medium; type: cell-based; settings: parental MDA-MB-453 cells, seven days
[8] = tested on: STAT1 phosphorylation; assay: Interferon α-induced STAT1 phosphorylation in MDA-MB-453 cells; type: cell-based; settings: 3 μM pretreated for 24 hours, interferon α 30 minutes
[9] = molecular target: T1, AR (Homo sapiens, UniProt P10275); settings: HEK-293 cells
T1 sequence (P10275 1-920): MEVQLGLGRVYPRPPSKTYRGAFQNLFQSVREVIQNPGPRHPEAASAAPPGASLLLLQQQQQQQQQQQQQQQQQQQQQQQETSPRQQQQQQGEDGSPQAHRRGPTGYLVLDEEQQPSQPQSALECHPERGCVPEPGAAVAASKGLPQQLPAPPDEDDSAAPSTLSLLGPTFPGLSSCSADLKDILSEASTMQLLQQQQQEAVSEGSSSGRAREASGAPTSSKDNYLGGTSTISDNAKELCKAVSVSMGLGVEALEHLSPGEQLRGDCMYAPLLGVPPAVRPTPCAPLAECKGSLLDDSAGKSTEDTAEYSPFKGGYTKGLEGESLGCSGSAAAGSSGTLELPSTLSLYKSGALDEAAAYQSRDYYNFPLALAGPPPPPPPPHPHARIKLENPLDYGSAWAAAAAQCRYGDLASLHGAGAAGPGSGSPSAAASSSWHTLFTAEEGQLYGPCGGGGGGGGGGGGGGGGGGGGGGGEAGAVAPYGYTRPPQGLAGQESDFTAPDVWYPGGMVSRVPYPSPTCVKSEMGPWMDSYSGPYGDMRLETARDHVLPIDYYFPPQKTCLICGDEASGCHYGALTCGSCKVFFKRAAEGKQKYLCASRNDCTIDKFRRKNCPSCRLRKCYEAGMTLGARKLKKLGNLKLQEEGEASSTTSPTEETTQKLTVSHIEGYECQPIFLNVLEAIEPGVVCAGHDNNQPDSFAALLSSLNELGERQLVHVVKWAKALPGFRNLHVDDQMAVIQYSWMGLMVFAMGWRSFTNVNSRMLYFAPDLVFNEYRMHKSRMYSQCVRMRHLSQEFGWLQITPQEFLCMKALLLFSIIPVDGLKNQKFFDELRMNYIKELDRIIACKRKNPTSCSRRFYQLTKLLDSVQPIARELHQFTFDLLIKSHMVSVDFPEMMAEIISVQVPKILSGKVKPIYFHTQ

[10] = tested on: FKBP5; assay: R1881-induced FKBP5 expression in MDA-MB-453 cells; settings: 0.1 nM R1881, 3 μM, 24 hours

R1881-dependent AR transactivation in the absence of STAT1 [9] | STAT1-dependent increase in AR transactivation ([9]; 0.1 μg STAT1) | Compound | differentially expressed genes in treated tumors [1] | R1881-stimulated expression of FKBP5 [2] | R1881-stimulated expression of STEAP4 [2] | R1881-stimulated expression of TMPRSS2 [2] | growth of UT-1355 PDX [3] | effect in patients expressing AR-V7 [4] | MDA-MB-453 xenograft growth [5] | cell proliferation [6] | cell proliferation [7] | interferon-α-induced phosphorylation of STAT1 [8] | R1881-induced expression of FKBP5 [10]
– | – | CNC(=O)c1ccc(N2C(=S)N(c3ccc(C#N)c(C(F)(F)F)c3)C(=O)C2(C)C)cc1F [enzalutamide] | eight | inhibited | inhibited | inhibited | modestly effective | failed to have an effect | inhibits | – | – | – | –
no effect | inhibited | N#CC[C@H](C1CCCC1)n1cc(-c2ncnc3[nH]ccc23)cn1 [ruxolitinib] | – | – | – | – | – | – | – | comparable inhibition | comparable inhibition | completely inhibited | completely inhibited
